{"source": "patent US9782420B2", "about": "“Method for treating eye diseases” (Kyoto University, priority 2013, dated 2017)", "key": {"[1]": {"system": "CCR2 (monocyte chemoattractant protein 1 (MCP-1) receptor) deficient mice", "experiment": "Experiment 1: Removal of drusen in aged mice", "type": "in vivo", "description": "Experiment 1: Removal of Drusen in Aged Mice\nThe effect of the compound of number 32 (Compound 32) to remove previously formed drusen in relatively aged mice was tested. CCR2 (monocyte chemoattractant protein 1 (MCP-1) receptor) deficient mice were used. The mice in the group of Compound 32 (n=30 eyes) were orally administered with 50 mg/kg/day of Compound 32 dissolved in saline five days week from the age of nine months. The mice in the control group (n=48 eyes) were orally administered with the saline. The mice in the both groups were allowed to freely drink water. At the age of 6, 9, 10, 11, 12, 13, 14, and 15 months, the mice were examined by fundus photographs, optical coherence tomography (OCT) (Multiline OCT, Heidelberg Engineering) and electroretinogram (ERG)."}, "CCR2 deficient mice": {"system": "CCR2 deficient mice", "experiment": "Experiment 2: Suppression of formation of drusen in young mice", "type": "in vivo", "description": "Experiment 2: Suppression of Formation of Drusen in Young Mice\nThe effect of the compound of number 32 (Compound 32) to suppress the formation of the drusen in young mice was tested. CCR2 deficient mice were used. The mice were allowed to freely drink water containing 0.385 mg/ml of Compound 32 from the age of two months. The mice in the control group were allowed to freely drink water not containing Compound 32. At the age of 2, 3.5, 6, and 9 months, the mice were examined by fundus photographs, OCT, and ERG."}}}
{"smiles": "Cc1cc(F)ccc1-c1ccc(/N=N/c2cc(S(=O)(=O)[O-])c3ccccc3c2N)cn1.[Na+]", "note": "[Compound 32, 4-amino-3-[6-(4-fluoro-2-methylphenyl)pyridine-3-ylazo]naphthalene-1-sulfonic acid sodium salt]", "values": [{"measurement": "numbers of the drusen found in the fundus photographs (FIG. 5)", "setting": "[1]; aged CCR2 deficient mice, oral 50 mg/kg/day from age of nine months, age 6 to 15 months, vs saline control", "value": "the drusen were gradually increased in the control group but not in the mice administered with Compound 32"}, {"measurement": "drusen in fundus photographs (FIGS. 2 to 4)", "setting": "[1]; aged CCR2 deficient mice, oral 50 mg/kg/day in saline five days a week from age of nine months, photographs at age 9 and 15 months", "value": "the drusen disappeared in the area bounded by the line"}, {"measurement": "time-dependent change of the numbers of the drusen in individual mice (FIG. 6)", "setting": "[1]; mice 1 to 4 administered with Compound 32, oral 50 mg/kg/day from age of nine months", "value": "gradually decreased after the administration"}, {"measurement": "b-wave amplitudes in the electroretinogram (FIG. 7)", "setting": "[1]; mice at the age of 15 months, oral 50 mg/kg/day from age of nine months, vs control, p=<0.05", "value": "retinal function is better in the mice administered with Compound 32 than in the control mice"}, {"measurement": "a-wave amplitudes in the electroretinogram (FIG. 14)", "setting": "CCR2 deficient mice; mice at the age of 9 months, drinking water 0.385 mg/ml from age of two months, vs control, p=<0.001", "value": "function of photoreceptor cells is better in the mice administered with Compound 32 than in the control mice"}, {"measurement": "b-wave amplitudes in the electroretinogram (FIG. 13)", "setting": "CCR2 deficient mice; mice at the age of 9 months, drinking water 0.385 mg/ml from age of two months, vs control, p=<0.05", "value": "retinal function is better in the mice administered with Compound 32 than in the control mice"}, {"measurement": "number of the drusen found in the fundus photographs (FIG. 12)", "setting": "CCR2 deficient mice; young CCR2 deficient mice, drinking water 0.385 mg/ml from age of two months, age 2, 3.5, 6 and 9 months, vs control, p=<0.05", "value": "the drusen were gradually increased in the control group but not in the mice administered with Compound 32"}, {"measurement": "drusen in fundus photographs (FIGS. 9 to 11)", "setting": "CCR2 deficient mice; young CCR2 deficient mice, drinking water containing 0.385 mg/ml from age of two months, photographs at age 3.5, 6, and 9 months", "value": "the drusen did not increase"}]}
